Consider two molecules from patent publication US6025142A, “Hydrophobic u-PAR binding site” (Boehringer Mannheim GmbH, priority 1994, dated 2000).

Test [1] concerns the target T1, u-PAR (Homo sapiens, UniProt Q03405).
T1 construct: made in house; host or cells: Chinese hamster ovary (CHO) cells, conditioned media
The test can be described thus: fluorescence titration of u-PAR with ANS (Scatchard). The class given is binding. As to conditions: intact u-PAR. The procedure: ANS titration. The stoichiometry and affinity of ANS binding to u-PAR was determined by titrating fixed concentrations of u-PAR with ANS up to a concentration of 100 μM. The observed fluorescence intensities were corrected for the dilution effect of the added ANS, the low background fluorescence of ANS in buffer and for the inner filter effect of the varying concentration of ANS. The latter was performed using the relationship
where ε386 is the molar extinction coefficient of ANS at half the path length of the fluorescence cuvette, ANSo is the total ANS concentration, and Fobs and Fcorr are the observed and corrected fluorescence intensities. The concentration of bound ANS was determined from the relationship
where Fmax is the theoretical fluorescence of a molar solution if all were bound to u-PAR. This parameter was calculated by titration of a protein concentration sufficiently high to ensure that essentially all added ANS is bound in the initial linear part of the binding curve. The data generated in this way were analyzed by the method of Scatchard.

Another test deals with apohemoglobin. As to conditions: Stryer, 1965; read-out: Kd of ANS binding to apohemoglobin; cited from earlier work.
The target of another test is complement component C3b. The settings on record: Isenman, 1983; read-out: Kd of ANS binding to complement component C3b; cited from earlier work.
Test [2] addresses T1, u-PAR. The test can be described thus: protease cleavage of u-PAR monitored by ANS fluorescence. The format is biochemical. The procedure:
Fluorescence measurements. […] All fluorescence measurements were made using 2 μM u-PAR and 10 μM ANS in PBS at 25° C. unless otherwise stated.

T1 sequence (Q03405 23-299): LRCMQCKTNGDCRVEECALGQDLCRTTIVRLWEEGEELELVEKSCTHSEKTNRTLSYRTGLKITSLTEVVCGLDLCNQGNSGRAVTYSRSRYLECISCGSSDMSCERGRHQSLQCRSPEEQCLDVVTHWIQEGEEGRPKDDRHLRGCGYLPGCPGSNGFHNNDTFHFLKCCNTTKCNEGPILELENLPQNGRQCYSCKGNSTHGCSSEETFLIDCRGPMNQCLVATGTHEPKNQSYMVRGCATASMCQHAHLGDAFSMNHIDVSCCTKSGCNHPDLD

In the case of `O=S(=O)(O)c1cccc2cccc(Nc3ccccc3)c12` [ANS, 8-anilino-1-naphthalene sulfonic acid], the “enhancement of ANS fluorescence intensity on binding to u-PAR” value on u-PAR [1] is listed as over 10 fold. Besides, the “stoichiometry of ANS binding” value on u-PAR [1] is reported as 1.09±0.17 moles/mole u-PAR. Moreover, the Kd at u-PAR [1] (PBS, 25° C., read-out: dissociation constant of ANS binding to u-PAR) was 33.8 ± 3.2 µM; at apohemoglobin, 55 µM; at complement component C3b it was 40 µM.
With chymotrypsin, the “reduction in the ANS fluorescence after cleavage of intact u-PAR” value at u-PAR [2] is 75%.
